Experimental data as given in US8258184B1, “Use of vegetable butter-based cetyl myristoleate for treating osteoarthritis and other musculoskeletal disease conditions and injuries” (Botanoceuticals, Inc., priority 2002, dated 2012).

Assays:
[1] = system: severe arthritis caused by injuries in a horse; experiment: Treatment of osteoarthritis caused by injuries in a horse (Example 3, case report); assay type: in vivo; details: 30-year-old mare, previous treatments given together
Source text: Joint Response was tried as a last resort.

[2] = system: arthritis in Swiss albino mice; details: cited from earlier work
[3] = system: arthritis in laboratory rats exposed to Freund's adjuvant; details: cited from earlier work

SMILES | alleviation of discomfort by previous treatments [1] | protection from arthritis [2] | protection from arthritis [3]
CCCCC1C(=O)N(c2ccccc2)N(c2ccccc2)C1=O [Butte] | not working nearly well enough |  | 
CCCC/C=C\CCCCCCCC(=O)OCCCCCCCCCCCCCCCC [CM, cetyl myristoleate] |  | protected | protected
N[C@H]1C(O)O[C@H](CO)[C@@H](O)[C@@H]1O (some centres unmarked) [Glucosamine, glucosamine] | not working nearly well enough |  | 
CS(C)(=O)=O [MSM, methylsulfonylmethane] | not working nearly well enough |  | 
